Experimental data reported in US6946475B1, “Anticancer calcium channel blockers” (University of Virginia Patent Foundation, priority 1999, dated 2005).

How the values were obtained:
[1] = system: LNCaP prostate cancer cells; experiment: Measurement of cellular proliferation, LNCaP cells; assay type: cell-based, human
Description: (§1) Measurement of cellular proliferation: LNCaP cells at 2.5×10^4/well or PC3 cells at 5×10^4/well, both in a final volume of 100 μl, were plated in triplicate in standard flat bottom 96 well tissue culture plates in the presence of drug or vehicle (DMSO). Unless otherwise indicated, cells were grown for 48 hours at 37° C. in a CO2 incubator. Relative cell growth was determined with the CellTiter 96 aqueous cell proliferation assay (Promega, Madison, Wis.) as described by the manufacturer using an automated plate reader. Results were calculated in a blinded fashion and are means of triplicate determinations.
(§2) For the 48 hour proliferation, cells were cultured with calcium channel antagonists or without calcium channel antagonists. The IC50 values of the calcium channel antagonists were determined.
(§3) Using the measurement cell proliferation assay described hereinabove, the cell lines Jurkat, LNCap (prostate cancer cell), PC-31 (prostate cancer cell), DU145 (prostate cancer cell), MDA-468 (breast cancer cell), MDA-36 (Breast cancer cell), MCF-7 (breast cancer cell), MIA PaCa-2 (pancreatic cancer cell), Hep G2 (liver cancer cell), A549 (non-small cell lung cancer cells), NCI H460 (non-small cell lung cancer cells), HT-29 (colon cancer cell), HCT-116 (colon cancer cell) and SK OV-3 (ovarian cancer cell) were cultured in the presence of TH-1177, TH-1205, TH-1201, TH-2109, TH-2029, TH-2043, TN-2085 and TH-2279.

[2] = system: DU145 (prostate cancer cell); experiment: Measurement of cellular proliferation, DU145 cells; assay type: cell-based; settings: DU 145, 48 hours
Description: as §1, §2, §3

[3] = system: MDA-361 cells (breast cancer cell); experiment: Measurement of cellular proliferation, MDA-361 cells; assay type: cell-based; settings: MDA-361, 48 hours; read-out: PROLIFERATION IC50 MDA-361
Description: as §1, §2, §3

[4] = system: MCF-7 (breast cancer cell); experiment: Measurement of cellular proliferation, MCF-7 cells; assay type: cell-based; settings: MCF-7, 48 hours
Description: as §1, §2, §3

[5] = system: HT-29 (colon cancer cell); experiment: Measurement of cellular proliferation, HT-29 cells; assay type: cell-based; settings: HT-29, 48 hours
Description: as §1, §2, §3

[6] = system: PC3 cells; experiment: Survival of SCID mice inoculated with PC3 cells; assay type: in vivo
Description: Animal Studies: All protocols were approved by the Animal Care Committee of the University of Virginia. SCID mice were housed in a barrier isolation facility of the University of Virginia Department of Comparative Medicine and all personnel observed sterile techniques when entering the facility and handling animals. TH-1177 was dissolved in ethanol and diluted 10-fold in sterile phosphate buffered saline (PBS) immediately prior to each day's injection. Injection volumes of 0.5 ml per animal were used. Vehicle consisted of PBS diluted ethanol. PC3 cells for injection were prepared by washing in sterile PBS three times prior to suspension to 2×10^6 per ml. Each animal received a daily IP injection of vehicle or drug beginning on day 1.
Statistical methods: In vivo survival data were analyzed with Prism 2.01 (GraphPad Software, San Diego, Calif.). The results of the Kaplan-Meier analysis are presented as one-tailed probabilities because there was no reasonable expectation that drug treatment would cause the mice to succumb more rapidly to the implanted cancer than would control animals.
TH-1177 slowed prostate cancer progression in vivo. […] One day later, daily IP injections of TH-1177 or vehicle alone were begun. TH1177 was administered at doses or either 3 mg/kg or 10 mg/kg. […]

[7] = molecular target: T1, α1G subunit of a calcium channel (Homo sapiens, UniProt O43497); experiment: Whole cell current recording, Xenopus oocytes transfected with α1G subunit; assay type: cell-based
T1 construct: expressed in transfected cells
Description: The procedure of Example 9 was repeated except the cells were transfected with 2 μg of α1G subunit prepared in accordance with the procedure described in Cribbs, et al., FEBS Letters, 66, 54-58 (2000). Here the cells were depolarized using the depolarizing medium of Example 9. When the current reached the maximum level, then 10 μm pH 1177 was added to the medium and the change in current was observed. The current was measured at about zero pA. When the current remained constant, the TH-1177 was washed out, in accordance with the procedure in Example 9 and the change in the current value was again recorded.

T1 sequence (O43497 1-2171 isoform O43497-5): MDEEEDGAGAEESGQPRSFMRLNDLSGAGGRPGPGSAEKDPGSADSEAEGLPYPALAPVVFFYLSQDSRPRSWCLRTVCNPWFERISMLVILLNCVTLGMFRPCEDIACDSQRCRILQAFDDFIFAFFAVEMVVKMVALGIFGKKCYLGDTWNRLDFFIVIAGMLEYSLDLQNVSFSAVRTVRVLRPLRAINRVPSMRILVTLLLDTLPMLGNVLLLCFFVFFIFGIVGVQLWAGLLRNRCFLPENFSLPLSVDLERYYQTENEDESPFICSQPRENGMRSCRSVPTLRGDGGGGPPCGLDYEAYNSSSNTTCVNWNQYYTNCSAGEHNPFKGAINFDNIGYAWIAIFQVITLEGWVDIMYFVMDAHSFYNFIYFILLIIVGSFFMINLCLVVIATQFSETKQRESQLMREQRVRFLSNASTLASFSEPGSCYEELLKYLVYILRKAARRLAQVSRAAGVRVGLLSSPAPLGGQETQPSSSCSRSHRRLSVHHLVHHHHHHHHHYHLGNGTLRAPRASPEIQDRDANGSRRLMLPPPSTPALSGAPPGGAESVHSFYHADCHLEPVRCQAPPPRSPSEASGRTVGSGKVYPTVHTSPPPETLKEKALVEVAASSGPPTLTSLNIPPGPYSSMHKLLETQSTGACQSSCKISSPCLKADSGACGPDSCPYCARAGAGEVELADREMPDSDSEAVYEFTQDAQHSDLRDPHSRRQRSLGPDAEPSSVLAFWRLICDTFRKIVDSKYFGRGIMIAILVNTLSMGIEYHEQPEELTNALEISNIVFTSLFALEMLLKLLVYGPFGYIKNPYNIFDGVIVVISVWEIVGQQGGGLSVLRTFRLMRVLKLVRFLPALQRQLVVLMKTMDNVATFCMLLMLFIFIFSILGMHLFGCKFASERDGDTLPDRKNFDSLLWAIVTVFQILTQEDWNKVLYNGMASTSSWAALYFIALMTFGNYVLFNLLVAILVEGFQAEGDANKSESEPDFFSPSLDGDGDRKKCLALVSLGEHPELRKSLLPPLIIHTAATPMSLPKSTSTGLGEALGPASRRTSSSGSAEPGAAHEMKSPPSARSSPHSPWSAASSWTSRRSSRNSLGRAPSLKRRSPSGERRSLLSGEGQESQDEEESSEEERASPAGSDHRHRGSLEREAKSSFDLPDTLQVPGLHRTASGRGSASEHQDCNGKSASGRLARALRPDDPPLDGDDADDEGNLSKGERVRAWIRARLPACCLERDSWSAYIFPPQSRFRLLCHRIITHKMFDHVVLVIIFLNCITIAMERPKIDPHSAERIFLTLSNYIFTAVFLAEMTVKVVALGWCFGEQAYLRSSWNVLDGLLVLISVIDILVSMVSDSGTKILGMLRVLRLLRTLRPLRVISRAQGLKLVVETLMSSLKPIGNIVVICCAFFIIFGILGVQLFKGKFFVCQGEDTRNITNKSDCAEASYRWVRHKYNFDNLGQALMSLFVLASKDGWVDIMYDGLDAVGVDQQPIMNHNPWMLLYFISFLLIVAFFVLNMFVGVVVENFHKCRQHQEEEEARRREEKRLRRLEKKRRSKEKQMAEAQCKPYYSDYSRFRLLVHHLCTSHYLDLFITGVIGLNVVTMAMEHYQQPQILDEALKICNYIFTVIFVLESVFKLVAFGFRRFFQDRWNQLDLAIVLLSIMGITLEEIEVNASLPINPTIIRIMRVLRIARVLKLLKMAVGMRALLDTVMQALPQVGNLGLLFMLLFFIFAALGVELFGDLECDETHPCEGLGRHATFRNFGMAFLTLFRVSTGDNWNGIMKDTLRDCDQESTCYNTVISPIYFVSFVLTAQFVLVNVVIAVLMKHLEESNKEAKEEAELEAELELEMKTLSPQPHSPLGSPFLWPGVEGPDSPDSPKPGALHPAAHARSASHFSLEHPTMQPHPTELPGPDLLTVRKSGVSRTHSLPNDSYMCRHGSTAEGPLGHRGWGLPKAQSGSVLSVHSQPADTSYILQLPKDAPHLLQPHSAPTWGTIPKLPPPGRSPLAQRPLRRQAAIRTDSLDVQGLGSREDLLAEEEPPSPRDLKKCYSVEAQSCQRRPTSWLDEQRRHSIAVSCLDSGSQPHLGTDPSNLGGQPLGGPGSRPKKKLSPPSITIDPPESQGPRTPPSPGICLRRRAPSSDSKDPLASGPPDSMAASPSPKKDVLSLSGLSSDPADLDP

## COc1ccc(CCN2CCC[C@H]2COC(c2ccccc2)c2ccc(Cl)cc2)cc1 (some centres unmarked) [TH-1177]
[1]; FIG. 6A, 48 hours, read-out: IC50 for inhibition of LNCaP proliferation
  IC50: 4 µM
[1]; LNCaP, 1 μM or 3 μM, FIG. 7, growth resumed after removal
  Cell growth in presence of compound: growth was stopped
[1]; LNCaP, FIG. 8
  Effect of prior treatment on response to second exposure: no effect
[2]
  IC50: 19 µM
[3]
  IC50: 26 µM
[4]
  IC50: 21 µM
[5]
  IC50: ~100 µM
[6]; 3 mg/kg/d daily IP, p=0.047
  Life span increase: 34%
[6]; 10 mg/kg/d daily IP, p=0.0044
  Life span increase: 38%
[7]; 10 μm added at maximum current
  Current in depolarized α1G-transfected cells: about zero
[7]; α1G-transfected Xenopus oocytes, restored on washout
  Ability of calcium to cross the cell membrane: completely inhibits
